Molecules are shown by their SMILES.

The text below walks through data of patent US20240092756A1, “METHODS AND COMPOSITION FOR KRAS MODIFICATIONS” (2692372 ONTARIO, INC., priority 2020, published 2024).

The target in assay [1] is KRAS G12C Lite (SEQ ID NO:3) (Homo sapiens, UniProt P01116, C118S/C51S/C80S/G12C/S136P/S39C). The experiment in a line: Intact mass analysis (LC-MS) of covalent modification, KRAS G12C Lite. Type of assay: binding. Also noted: key to KRAS Lite Modification: a: KRAS Lite modified. Conditions: for KRAS Lite Modification: intact mass spectrometry, covalent modification of KRAS G12C Lite; for covalent adduct mass, His-tagged KRAS G12C Lite: modification by one molecule of compound. The procedure:
(§1) The covalent modification of the proteins with the compounds were evaluated using intact mass analysis by liquid chromatography-mass spectrometry instrument (LC-MS/MS).
(§2) The reaction solution (20 μL) was prepared in 96-well plate and contained the protein (2 μM), the compound (100 μM), HEPES buffer (20 mM, pH 8), 2% DMSO, 2% glycerol, and 150 mM NaCl. The reaction was allowed to proceed for 24 h at 25° C. The reaction solution (1 μL) was injected into the LC/MS/MS without any further sample preparation.
(§3) The LC-MS/MS instrument comprises of a Waters G2-XS quadrupole-time of flight (QTof) mass spectrometer and a Waters Acuity I-class Ultra-High Performance Liquid Chromatography (UPLC) system. The I-class UPLC system includes a binary solvent manager (BSM), and an Acquity sample manager (SM). The mobile phase consisted of: A) 0.1% (v/v) formic acid in MilliQ water; B) 0.1% (v/v) formic acid acetonitrile. Gradients were run over 5 min and proceeded as follows: A:B, 85:15, 0.0-0.7 min, 85:15→15:85, 0.7-1.5 min, 10:90, 1.5-4 min, 10:90→85:15, 4-4.5 min, 85:15, 4.5-5 min. The analytical column was a Waters BEH C4 column 1.7 μm (50×1 mm) column with pore sizes of 300 Å. The TOF MS data was collected in positive ion mode (m/z of 400-2000 Da) using MassLynx software (Waters).
(§4) The spectral deconvolution was performed using UNIFI software (Waters). The added mass of the protein upon covalent modification to cysteine residues were specified. Multiple modification of up to 8 cysteine was allowed. All the adducts with signal intensities of <2% of the base peak were ignored. The % modification was calculated as the adduct signal intensity over the total intensities of the protein peaks and the adducts.

For assay [2], the target named is KRAS G12C Lite (Homo sapiens, UniProt P01116, C118S/C51S/C80S/G12C/S136P/S39C). The experiment in a line: Differential scanning fluorimetry, KRAS G12C Lite. Also on record: key: Y: protein destabilized; N: protein not destabilized. As to conditions: 37° C. 5 hours incubation. It is filed as binding. The protocol:
(§5) KRas proteins at 0.05 mg/ml in buffer Hepes, 147 mM NaCl, 2% glycerol, 5 mM MgCl2, 1 mM EDTA, 10 μM GDP, pH 8.0 were incubated in the presence desired concentration of compounds (5% DMSO final concentration) at 37° C. for 5 hours. After incubation, Sypro Oange to a final concentration of 5× was added to each sample. 20 μl aliquots of samples were transferred PCR tubes, sealed with caps, and run in a BioRad CFX96 RTPCR thermocycler. In the instrument, the samples were heated at a rate of 1° C./min from 25 to 90 degrees. Fluorescence readings were taken every 1 degree. The data generated was exported and analyzed using GraphPad-Prism software. The denaturation curves were fit using a Boltzmann sigmoidal equation to calculate melting temperatures (Tm).
Background: In DSF a fluorescence change marks the thermal transition of the protein.

Assay [3] deals with T1, KRAS G12C (SEQ ID NO:1 or SEQ ID NO:2) (Homo sapiens, UniProt P01116, G12C).
T1 construct: purchased
In words: Intact mass analysis (LC-MS) of covalent modification, KRAS G12C. It is filed as binding. Also on record: key to KRAS G12C Modification: b: KRAS G12C modified. As to conditions: for KRAS G12C Modification: intact mass spectrometry, covalent modification of KRAS G12C FL; for covalent adduct mass, His-tagged KRAS G12C: modification by one molecule of compound. The protocol:
as §1, §2, §3, §4

Assay [4] has as its target T2, KRAS G12C (Homo sapiens, UniProt P01116, G12C). In words: SOS1-catalyzed KRAS coupled nucleotide exchange assay (Alpha technology). Type of assay: biochemical. Also on record: His; key: A: KRAS G12C bound and modulated. Conditions: inhibition of SOS1 mediated KRAS nucleotide exchange. Put shortly:
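Alpha readout of c-RAF RBD binding to GTP-bound KRAS, normalized to DMSO. Method I: 20 nM GDP-KRAS G12C/C118A with compound 5 min, then 1.25 mM GTP + 500 nM SOS-1 30 min, pH 7.4 HEPES/MgCl2 buffer, 50 nM RBD. Method II: 50 nM GDP-KRAS G12C with compound 2 h, 1 mM GTP + 500 nM SOS-1 30 min, 2.5 nM GST-RBD; RT throughout.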

Assay [5] relates to phospho-ERK1/2 in MIA PaCa-2 cells (express KRAS G12C). The experiment in a line: ERK1/2 phosphorylation in MIA PaCa-2 cells. Type of assay: cell-based, human. Also on record: key: X: KRAS G12C bound and modulated in cells.
The target in assay [6] is T2, KRAS G12C. The experiment in a line: Differential scanning fluorimetry, KRAS G12C. Type of assay: binding. Also noted: purchased; key: Y: protein destabilized; N: protein not destabilized. Conditions: 37° C. 5 hours incubation. The protocol:
as §5

In the case of `CN1CCC[C@H]1COc1nc2c(c(N3CCN(S(=O)(=O)c4c(F)c(F)c(F)c(F)c4C(F)(F)F)CC3)n1)CCN(c1cccc3cccc(Cl)c13)C2` (stereo in doubt) [Compound 42A, (7R)-7-(8-chloro-1-naphthyl)-2-[[(1S,2S)-1-methylpyrrolidin-2-yl]methoxy]-4-[4-[2,3,4,5-tetrafluoro-6-(trifluoromethyl)phenyl]sulfonylpiperazin-1-yl]-6,8-dihydro-5H-pyrido[3,4-d]pyrimidine], the “KRAS Lite Modification” value in assay [1] is listed as “a”. Besides, the “KRAS G12C Lite DSF ΔTm” value in assay [2] was “Y”. In addition, in assay [3], the “KRAS G12C Modification” value is “b”. In addition, the “KRAS-SOS1 Nucleotide Exchange” value in assay [4] is recorded as “A”.

Take `Cc1ccnc(C(C)C)c1-n1c(=O)nc(N2CCN(S(=O)(=O)c3c(F)c(F)c(F)c(F)c3F)C[C@@H]2C)c2cc(F)c(-c3c(O)cccc3F)nc21` [Compound 1A, 6-fluoro-7-(2-fluoro-6-hydroxyphenyl)-1-(2-isopropyl-4-methylpyridin-3-yl)-4-((S)-2-methyl-4-((perfluorophenyl)sulfonyl)piperazin-1-yl)pyrido[2,3-d]pyrimidin-2(1H)-one]: in assay [1], the “KRAS Lite Modification” value is “a” and the “covalent adduct mass, His-tagged KRAS G12C Lite” value is listed as 22,179 Da. Besides, in assay [3], the “KRAS G12C Modification” value is recorded as “b” and the “covalent adduct mass, His-tagged KRAS G12C” value was 22,070 Da. In addition, in assay [5], the “pERK - MIA PaCa-2 - (6 hours, 5 uM)” value is “X”. In addition, in assay [4], the “KRAS-SOS1 Nucleotide Exchange” value is given as “A”.

With `Cc1ccnc(C(C)C)c1-n1c(=O)nc(NS(=O)(=O)c2c(F)c(F)c(F)c(F)c2F)c2cc(F)c(-c3c(O)cccc3F)nc21` [Compound 3A, 2,3,4,5,6-pentafluoro-N-(6-fluoro-7-(2-fluoro-6-hydroxyphenyl)-1-(2-isopropyl-4-methylpyridin-3-yl)-2-oxo-1,2-dihydropyrido[2,3-d]pyrimidin-4-yl)benzenesulfonamide], the “KRAS Lite Modification” value in assay [1] is given as “a”. For the same compound, in assay [3], the “KRAS G12C Modification” value is listed as “b”. In addition, the “pERK - MIA PaCa-2 - (6 hours, 5 uM)” value in assay [5] is “X”. The “KRAS-SOS1 Nucleotide Exchange” value in assay [4] was “A”.

For `Cc1ccnc(C(C)C)c1-n1c(=O)nc(N2CCN(S(=O)(=O)c3c(F)c(F)c(F)c(F)c3C(F)(F)F)C[C@@H]2C)c2cc(F)c(-c3c(O)cccc3F)nc21` [Compound 6A, 6-fluoro-7-(2-fluoro-6-hydroxyphenyl)-1-(2-isopropyl-4-methylpyridin-3-yl)-4-((S)-2-methyl-4-((2,3,4,5-tetrafluoro-6-(trifluoromethyl)phenyl)sulfonyl)piperazin-1-yl)pyrido[2,3-d]pyrimidin-2(1H)-one], in assay [1], the “KRAS Lite Modification” value is reported as “a” and the “covalent adduct mass, His-tagged KRAS G12C Lite” value is given as 22,229 Da. In assay [3], the “KRAS G12C Modification” value was “b” and the “covalent adduct mass, His-tagged KRAS G12C” value is given as 22,120 Da. In assay [5], the “pERK - MIA PaCa-2 - (6 hours, 5 uM)” value is “X”. The “KRAS-SOS1 Nucleotide Exchange” value in assay [4] was “A”.

For `Cc1ccnc(C(C)C)c1-n1c(=O)nc(N2CCN(S(=O)(=O)c3c(F)c(F)c(F)c(F)c3OCF)C[C@@H]2C)c2cc(F)c(-c3c(O)cccc3F)nc21` [Compound 7A, 6-fluoro-7-(2-fluoro-6-hydroxyphenyl)-1-(2-isopropyl-4-methylpyridin-3-yl)-4-((S)-2-methyl-4-((2,3,4,5-tetrafluoro-6-(fluoromethoxy)phenyl)sulfonyl)piperazin-1-yl)pyrido[2,3-d]pyrimidin-2(1H)-one], in assay [1], the “KRAS Lite Modification” value is recorded as “a” and the “covalent adduct mass, His-tagged KRAS G12C Lite” value is 22,209 Da. For the same compound, in assay [3], the “KRAS G12C Modification” value is “b” and the “covalent adduct mass, His-tagged KRAS G12C” value is 22,100 Da. The “pERK - MIA PaCa-2 - (6 hours, 5 uM)” value in assay [5] is “X”. In assay [4], the “KRAS-SOS1 Nucleotide Exchange” value was “A”.

Regarding `Cc1ccnc(C(C)C)c1-n1c(=O)nc(N2CCN(S(=O)(=O)c3c(F)c(F)c(F)c(F)c3C(F)(F)F)C[C@@H]2C)c2cc(F)c(Cl)nc21` [Compound 11A, 7-chloro-6-fluoro-1-(2-isopropyl-4-methylpyridin-3-yl)-4-((S)-2-methyl-4-((2,3,4,5-tetrafluoro-6-(trifluoromethyl)phenyl)sulfonyl)piperazin-1-yl)pyrido[2,3-d]pyrimidin-2(1H)-one], the “KRAS Lite Modification” value in assay [1] is “a”. Besides, the “KRAS G12C Lite DSF ΔTm” value in assay [2] is reported as “Y”. Moreover, the “KRAS G12C Modification” value in assay [3] is reported as “b”. In assay [6], the “KRAS G12C DSF ΔTm” value is recorded as “Y”.

With `Cc1ccnc(C(C)C)c1-n1c(=O)nc(N2CCN(S(=O)(=O)c3c(F)c(F)c(F)c(F)c3OC(F)F)C[C@@H]2C)c2cc(F)c(Cl)nc21` [Compound 12A, (S)-7-chloro-4-(4-((2-(difluoromethoxy)-3,4,5,6-tetrafluorophenyl)sulfonyl)-2-methylpiperazin-1-yl)-6-fluoro-1-(2-isopropyl-4-methylpyridin-3-yl)pyrido[2,3-d]pyrimidin-2(1H)-one], in assay [1], the “KRAS Lite Modification” value is “a”. Moreover, the “KRAS G12C Lite DSF ΔTm” value in assay [2] is given as “Y”. Moreover, the “KRAS G12C Modification” value in assay [3] is listed as “b”. For the same compound, the “KRAS-SOS1 Nucleotide Exchange” value in assay [4] is “A”. The “KRAS G12C DSF ΔTm” value in assay [6] is listed as “Y”.

Turning to `Cc1ccnc(C(C)C)c1-n1c(=O)nc(N2CC(NS(=O)(=O)c3c(F)c(F)c(F)c(F)c3C(F)(F)F)C2)c2cc(F)c(Cl)nc21` [Compound 13A, N-(1-(7-chloro-6-fluoro-1-(2-isopropyl-4-methylpyridin-3-yl)-2-oxo-1,2-dihydropyrido[2,3-d]pyrimidin-4-yl)azetidin-3-yl)-2,3,4,5-tetrafluoro-6-(trifluoromethyl)benzenesulfonamide], the “KRAS Lite Modification” value in assay [1] is on record as “a”. In assay [2], the “KRAS G12C Lite DSF ΔTm” value is on record as “Y”. Besides, the “KRAS G12C Modification” value in assay [3] is “b”. The “KRAS-SOS1 Nucleotide Exchange” value in assay [4] is “A”. Also, the “KRAS G12C DSF ΔTm” value in assay [6] is recorded as “Y”.
